Here are results for 15 molecules from patent publication US20120220562A1, “Anti-Viral Compounds” (ABBOTT LABAORATORIES, priority 2011, published 2012).

For this test, the system named is HCV 1b-Con1 replicon. Kind of test: HCV 1b-Con1 replicon assay in the presence of 5% FBS. The following applies: Hepatitis C virus. It counts as cell-based. For orientation: A replicon is a self-replicating genome or part of one, used to study replication in cells.
As to `COC(=O)N[C@H](C(=O)N1CCC[C@H]1c1nc2cc([C@H]3CC[C@H](c4ccc5[nH]c([C@@H]6CCCN6C(=O)[C@@H](NC(=O)OC)C(C)C)nc5c4)N3c3cc(F)c(N4CCC5(CC4)OCCO5)c(F)c3)ccc2[nH]1)C(C)C` [Example 5.14], the EC50 (commonly the midpoint of the concentration-response curve) is below 0.1 nM. Then `COC(=O)N[C@H](C(=O)N1CCC[C@H]1c1nc2cc([C@H]3CC[C@H](c4ccc5[nH]c([C@@H]6CCCN6C(=O)[C@@H](NC(=O)OC)C(C)C)nc5c4)N3c3ccc(OCc4ccccc4)cc3)ccc2[nH]1)C(C)C` [Example 4.41, methyl {(2S)-1-[(2S)-2-{5-[(2R,5R)-1-[4-(benzyloxy)phenyl]-5-{2-[(2S)-1-{(2S)-2-[(methoxycarbonyl)amino]-3-methylbutanoyl}pyrrolidin-2-yl]-1H-benzimidazol-5-yl}pyrrolidin-2-yl]-1H-benzimidazol-2-yl}pyrrolidin-1-yl]-3-methyl-1-oxobutan-2-yl}carbamate], with below 0.1 nM. Under `COC(=O)N[C@H](C(=O)N1CCC[C@H]1c1nc2cc([C@H]3CC[C@H](c4cc5nc([C@@H]6CCCN6C(=O)[C@@H](NC(=O)OC)C6CCOCC6)[nH]c5cc4F)N3c3cc(F)c(N4CCC(C(C)(C)C)CC4)c(F)c3)c(F)cc2[nH]1)C1CCOCC1` [Example 6.14, dimethyl ({(2R,5R)-1-[4-(4-tert-butylpiperidin-1-yl)-3,5-difluorophenyl]pyrrolidine-2,5-diyl}bis{(6-fluoro-1H-benzimidazole-5,2-diyl)(2S)pyrrolidine-2,1-diyl [(1S)-2-oxo-1-(tetrahydro-2H-pyran-4-yl)ethane-2,1-diyl]}) biscarbamate] stands below 0.1 nM.

With `COC(=O)N[C@H](C(=O)N1CCC[C@H]1c1nc2cc([C@@H]3CC[C@@H](c4ccc5[nH]c([C@@H]6CCCN6C(=O)[C@@H](NC(=O)OC)[C@@H](C)OC)nc5c4)N3c3ccc(N4CCCCC4)c(F)c3)ccc2[nH]1)[C@@H](C)OC` [Example 3.16, methyl {(2S,3R)-1-[(2S)-2-{5-[(2S,5S)-1-[3-fluoro-4-(piperidin-1-yl)phenyl]-5-(2-{(2S)-1-[N-(methoxycarbonyl)-O-methyl-L-threonyl]pyrrolidin-2-yl}-1H-benzimidazol-5-yl)pyrrolidin-2-yl]-1H-benzimidazol-2-yl}pyrrolidin-1-yl]-3-methoxy-1-oxobutan-2-yl}carbamate], the EC50 was 0.1 to 1 nM.

For the molecule `CCOc1ccc(N2[C@@H](c3ccc4nc([C@@H]5CCCN5C(=O)[C@@H](NC(=O)OC)C(C)C)[nH]c4c3)CC[C@@H]2c2ccc3nc([C@@H]4CCCN4C(=O)[C@@H](NC(=O)OC)C(C)C)[nH]c3c2)cc1` [Example 4.10, methyl {(2S)-1-[(2S)-2-{6-[(2R,5R)-1-(4-ethoxyphenyl)-5-{2-[(2S)-1-{(2S)-2-[(methoxycarbonyl)amino]-3-methylbutanoyl}pyrrolidin-2-yl]-1H-benzimidazol-6-yl}pyrrolidin-2-yl]-1H-benzimidazol-2-yl}pyrrolidin-1-yl]-3-methyl-1-oxobutan-2-yl}carbamate], the EC50 is below 0.1 nM. Under `COC(=O)N[C@H](C(=O)N1CCC[C@H]1c1nc2cc([C@H]3CC[C@H](c4cc5nc([C@@H]6CCCN6C(=O)[C@@H](NC(=O)OC)C(C)C)[nH]c5cc4F)N3c3cc(F)c(N4CCN(c5ncccn5)CC4)c(F)c3)c(F)cc2[nH]1)C(C)C` [Example 4.60, methyl {(2S)-1-[(2S)-2-{5-[(2R,5R)-1-{3,5-difluoro-4-[4-(pyrimidin-2-yl)piperazin-1-yl]phenyl}-5-{6-fluoro-2-[(2S)-1-{(2S)-2-[(methoxycarbonyl)amino]-3-methylbutanoyl}pyrrolidin-2-yl]-1H-benzimidazol-5-yl}pyrrolidin-2-yl]-6-fluoro-1H-benzimidazol-2-yl}pyrrolidin-1-yl]-3-methyl-1-oxobutan-2-yl}carbamate] stands below 0.1 nM; under `COC(=O)N[C@H](C(=O)N1CCC[C@H]1c1nc2ccc([C@H]3CC[C@H](c4ccc5nc([C@@H]6CCCN6C(=O)[C@@H](NC(=O)OC)C(C)C)[nH]c5c4)N3c3cc(F)c(N4CCC5(CCCC5)CC4)c(F)c3)cc2[nH]1)C(C)C` [Example 2.11, methyl {(2S)-1-[(2S)-2-{5-[(2R,5R)-1-[4-(8-azaspiro[4.5]dec-8-yl)-3,5-difluorophenyl]-5-{2-[(2S)-1-{(2S)-2-[(methoxycarbonyl)amino]-3-methylbutanoyl}pyrrolidin-2-yl]-1H-benzimidazol-5-yl}pyrrolidin-2-yl]-1H-benzimidazol-2-yl}pyrrolidin-1-yl]-3-methyl-1-oxobutan-2-yl}carbamate], below 0.1 nM; under `COC(=O)N[C@H](C(=O)N1CCC[C@H]1c1nc2cc([C@H]3CC[C@@H](c4cc5nc([C@@H]6CCCN6C(=O)[C@@H](NC(=O)OC)C(C)C)[nH]c5cc4F)N3c3cnc(N4CCCCC4)nc3)c(F)cc2[nH]1)C(C)C` [Example 3.47, methyl {(2S)-1-[(2S)-2-(6-fluoro-5-{(2R,5S)-5-{6-fluoro-2-[(2S)-1-{(2S)-2-[(methoxycarbonyl)amino]-3-methylbutanoyl}pyrrolidin-2-yl]-1H-benzimidazol-5-yl}-1-[2-(piperidin-1-yl)pyrimidin-5-yl]pyrrolidin-2-yl}-1H-benzimidazol-2-yl)pyrrolidin-1-yl]-3-methyl-1-oxobutan-2-yl}carbamate], below 0.1 nM. Consider `COC(=O)N[C@H](C(=O)N1CCC[C@H]1c1nc2cc([C@H]3CC[C@H](c4ccc5[nH]c([C@@H]6CCCN6C(=O)[C@@H](NC(=O)OC)C(C)C)nc5c4)N3c3cc(F)c(N4CCOC(c5ccccc5)C4)c(F)c3)ccc2[nH]1)C(C)C` (stereo partly drawn) [Example 4.49, methyl {(2S)-1-[(2S)-2-{5-[(2R,5R)-1-[3,5-difluoro-4-(2-phenylmorpholin-4-yl)phenyl]-5-{2-[(2S)-1-{(2S)-2-[(methoxycarbonyl)amino]-3-methylbutanoyl}pyrrolidin-2-yl]-1H-benzimidazol-5-yl}pyrrolidin-2-yl]-1H-benzimidazol-2-yl}pyrrolidin-1-yl]-3-methyl-1-oxobutan-2-yl}carbamate], for which the EC50 is below 0.1 nM. Then `COC(=O)N[C@H](C(=O)N1CCC[C@H]1c1nc2cc(F)c([C@H]3CC[C@H](c4cc5[nH]c([C@@H]6CCCN6C(=O)[C@@H](NC(=O)OC)C(C)C)nc5cc4F)N3c3cc(F)c(N4CC(C)CC(C)C4)c(F)c3)cc2[nH]1)C(C)C` (stereo partly drawn) [Example 2.16, methyl {(2S)-1-[(2S)-2-{5-[(5R)-1-[4-(3,5-dimethylpiperidin-1-yl)-3,5-difluorophenyl]-5-{6-fluoro-2-[(2S)-1-{(2S)-2-[(methoxycarbonyl)amino]-3-methylbutanoyl}pyrrolidin-2-yl]-1H-benzimidazol-5-yl}pyrrolidin-2-yl]-6-fluoro-1H-benzimidazol-2-yl}pyrrolidin-1-yl]-3-methyl-1-oxobutan-2-yl}carbamate], with below 0.1 nM; and `COC(=O)N[C@H](C(=O)N1CCC[C@H]1c1nc2ccc([C@H]3CC[C@H](c4ccc5nc([C@@H]6CCCN6C(=O)[C@@H](NC(=O)OC)C(C)C)[nH]c5c4)N3c3cc(F)c(N4CCC(F)(c5ccccc5)CC4)c(F)c3)cc2[nH]1)C(C)C` [Example 4.35, methyl {(2S)-1-[(2S)-2-{6-[(2R,5R)-1-[3,5-difluoro-4-(4-fluoro-4-phenylpiperidin-1-yl)phenyl]-5-{2-[(2S)-1-{(2S)-2-[(methoxycarbonyl)amino]-3-methylbutanoyl}pyrrolidin-2-yl]-1H-benzimidazol-6-yl}pyrrolidin-2-yl]-1H-benzimidazol-2-yl}pyrrolidin-1-yl]-3-methyl-1-oxobutan-2-yl}carbamate], with below 0.1 nM; and `COC(=O)N[C@H](C(=O)N1CCC[C@H]1c1nc2cc([C@H]3CC[C@H](c4ccc5[nH]c([C@@H]6CCCN6C(=O)[C@@H](NC(=O)OC)C(C)C)nc5c4)N3c3cc(F)c(N4CCC5(CC4)CC5)c(F)c3)ccc2[nH]1)C(C)C` [Example 5.11, methyl {(2S)-1-[(2S)-2-{5-[(2R,5R)-1-[4-(6-azaspiro[2.5]oct-6-yl)-3,5-difluorophenyl]-5-{2-[(2S)-1-{(2S)-2-[(methoxycarbonyl)amino]-3-methylbutanoyl}pyrrolidin-2-yl]-1H-benzimidazol-5-yl}pyrrolidin-2-yl]-1H-benzimidazol-2-yl}pyrrolidin-1-yl]-3-methyl-1-oxobutan-2-yl}carbamate], with below 0.1 nM.

In the case of `COCCOc1ccc(N2[C@@H](c3ccc4[nH]c([C@@H]5CCCN5C(=O)[C@@H](NC(=O)OC)C(C)C)nc4c3)CC[C@@H]2c2ccc3[nH]c([C@@H]4CCCN4C(=O)[C@@H](NC(=O)OC)C(C)C)nc3c2)cc1` [Example 3.3, methyl {(2S)-1-[(2S)-2-(5-{(2R,5R)-5-{2-[(2S)-1-{(2S)-2-[(methoxycarbonyl)amino]-3-methylbutanoyl}pyrrolidin-2-yl]-1H-benzimidazol-5-yl}-1-[4-(2-methoxyethoxy)phenyl]pyrrolidin-2-yl}-1H-benzimidazol-2-yl)pyrrolidin-1-yl]-3-methyl-1-oxobutan-2-yl}carbamate], the EC50 is 0.1 to 1 nM. Then `COC(=O)N[C@H](C(=O)N1CCC[C@H]1c1nc2cc([C@H]3CC[C@H](c4cc5nc([C@@H]6CCCN6C(=O)[C@@H](NC(=O)OC)C(C)C)[nH]c5cc4F)N3c3cc(F)c(N4CCC(c5ccc(C)s5)CC4)c(F)c3)c(F)cc2[nH]1)C(C)C` [Example 4.61, methyl {(2S)-1-[(2S)-2-{5-[(2R,5R)-1-{3,5-difluoro-4-[4-(5-methyl-2-thienyl)piperidin-1-yl]phenyl}-5-{6-fluoro-2-[(2S)-1-{(2S)-2-[(methoxycarbonyl)amino]-3-methylbutanoyl}pyrrolidin-2-yl]-1H-benzimidazol-5-yl}pyrrolidin-2-yl]-6-fluoro-1H-benzimidazol-2-yl}pyrrolidin-1-yl]-3-methyl-1-oxobutan-2-yl}carbamate], with below 0.1 nM; and `COC(=O)N[C@H](C(=O)N1CCC[C@H]1c1nc2cc([C@H]3CC[C@H](c4cc5nc([C@@H]6CCCN6C(=O)[C@@H](NC(=O)OC)C(C)C)[nH]c5cc4F)N3c3ccc(N4CCCCC4)c(F)c3)c(F)cc2[nH]1)C(C)C` [Example 6.9, methyl {(2S)-1-[(2S)-2-(6-fluoro-5-{(2R,5R)-5-{6-fluoro-2-[(2S)-1-{(2S)-2-[(methoxycarbonyl)amino]-3-methylbutanoyl}pyrrolidin-2-yl]-1H-benzimidazol-5-yl}-1-[3-fluoro-4-(piperidin-1-yl)phenyl]pyrrolidin-2-yl}-1H-benzimidazol-2-yl)pyrrolidin-1-yl]-3-methyl-1-oxobutan-2-yl}carbamate], with below 0.1 nM.
